From ChEMBL document CHEMBL1137263, “Replacing the cyclohexene-linker of FR181157 leading to novel IP receptor agonists: orally active prostacyclin mimetics. Part 6” (Bioorg Med Chem Lett, 2006) come the findings set out here.

The target in one data set is Prostacyclin receptor (Homo sapiens, UniProt P43119). The data set is described as follows: Displacement of [3H]iloprost from cloned human PGI2 receptor. In general terms: Displacement assays read how much labelled ligand stays bound in the presence of the test substance.
Sequence of Prostacyclin receptor (P43119 whole entry): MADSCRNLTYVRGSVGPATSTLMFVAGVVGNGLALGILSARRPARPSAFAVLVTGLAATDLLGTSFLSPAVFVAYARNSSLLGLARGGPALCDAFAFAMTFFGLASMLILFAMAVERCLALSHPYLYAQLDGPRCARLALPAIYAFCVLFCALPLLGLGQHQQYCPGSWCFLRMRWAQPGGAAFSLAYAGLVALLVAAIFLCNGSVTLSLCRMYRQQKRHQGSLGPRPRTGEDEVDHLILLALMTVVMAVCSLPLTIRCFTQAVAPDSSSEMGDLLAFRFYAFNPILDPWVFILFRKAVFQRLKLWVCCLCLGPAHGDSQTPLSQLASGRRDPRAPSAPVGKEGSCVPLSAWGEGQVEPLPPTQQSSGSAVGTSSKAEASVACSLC
Data set [1] in a line: Oral bioavailability in rat. The note with it: in vivo. In kind it is ADME, organism-based.
The nature of data set [2]: Cmax in rat at 1 mg/kg, po. In kind it is ADME, organism-based. Further details: dose 1 mg/kg, route oral. Particulars: in vivo.
A short description of data set [3]: AUC in rat at 1 mg/kg, po. Particulars: plasma. It counts as ADME, organism-based. The arrangement: dose 1 mg/kg, route oral.

For the compound `O=C([O-])COc1cccc(C[C@@H]2CCCC=C2c2nc(-c3ccccc3)c(-c3ccccc3)o2)c1.[Na+]`, the Ki (in general, the dissociation constant of the complex between target and ligand, obtained from inhibition or displacement) on Prostacyclin receptor is 60 nM. Also, the bioavailability (in general, the share of a dose that reaches the circulation, judged against a reference dose that is usually intravenous) in data set [1] is 50%.
`O=C(O)COc1cccc(CN2CCC[C@@H]2c2nc(-c3ccccc3)c(-c3ccccc3)o2)c1` came in with a Ki on Prostacyclin receptor of 76 nM.
For `Cl.O=C(O)COc1cccc(CN2CCC[C@@H]2c2nc(-c3ccccc3)c(-c3ccccc3)o2)c1`, in data set [1], the bioavailability amounted to 41%. In data set [2], the concentration peaked (Cmax) at 15.5 ng/mL. Also, in data set [3], the AUC (commonly concentration integrated over time) worked out at 81.7 ng·h/mL.
